This is an account of results in patent publication US20190133122A1, “FUNGICIDAL OR BACTERICIDAL COMPOSITION AND METHOD FOR CONTROLLING DISEASE” (Nissan Chemical Corporation, priority 2016, published 2019).

Where a name gives a salt, the structure may show the parent alone.

The test system of the first assay is cucumber gray mold fungus (Botrytis cinerea). The assay can be described thus: Preventive test against gray mold (sprayed cucumber cotyledon, cut leaf inoculated). In kind it is in vivo. To be noted: 1 ppm, active ingredient B alone; cucumber leaf, 20° C., 3 days after inoculation. How it is done: Such an agent was diluted with water to a predetermined concentration to obtain a test solution. Then, cucumber (variety: Sagami-hanjiro) was planted in a plastic pot of 90 cm^3, and in the cotyledon stage, 5 ml of the obtained test solution, was sprayed by a spray gun and air-dried. Thereafter, the treated leaf was cut off and placed in a plastic container which filled approximately 0.5 cm in depth water. A suspension of conidia of cucumber gray mold fungus (Botrytis cinerea) and a dissolved PDA culture medium were mixed at a ratio of 1:1 (mass ratio), and the mixture was dropped to inoculate the treated leaf with 30 μl. After the inoculation, the plastic container was sealed and left at 20° C. for 3 days, the ratio of the formed lesion occupying the inoculated leaf was measured, and the preventive value (observed value) was calculated in accordance with the following calculation formula.
Preventive value=[1−(treated plot lesion area ratio/untreated plot lesion area ratio)]×100
Further, from the preventive value at each agent concentration, a theoretical value expected by treatment of the mixing (theoretical value) was calculated by using the Colby method (Colby S. R. 1967, Weeds 15, 20-22), in order to analyze synergy. The calculation method is as follows.
X: preventive value of A agent (test solution obtained from active ingredient A) at x concentration
Y: preventive value of B agent (test solution obtained from active ingredient B) at y concentration
E: theoretical value expected by treatment of the mixture of A agent and B agent.
In the observed value and the theoretical value, calculated as the above, the obtained result is analyzed to be synergy if the observed value is larger than the theoretical value, to be antagonism if the theoretical value is larger than the observed value, and to be an additive effect if the observed value and the theoretical value are the same.
Consider `CON(C(=O)c1cn(C)nc1C(F)F)C(C)Cc1c(Cl)cc(Cl)cc1Cl` (stereo not shown) [Compound No. C49, pydiflumetofen], for which the Preventive value was determined as 45.

For `O=C(Nc1ccccc1-c1ccc(F)c(F)c1)c1nccnc1C(F)(F)F` [Compound No. C50, pyraziflumid], the Preventive value is listed as 70.

The same assay, now with this note: 5 ppm, active ingredient B alone; cucumber leaf, 20° C., 3 days after inoculation.
In the case of `C=CCSC(=O)n1c(N)c(-c2ccccc2C)c(=O)n1C(C)C` [Compound No. H50, fenpyrazamine], the Preventive value turned out to be 56.

The assay is the same for the next values; noted with them: 10 ppm, active ingredient B alone; cucumber leaf, 20° C., 3 days after inoculation.
In the case of `CNC(=O)/C(=N/OC)c1ccccc1CO/N=C(C)/C=C/c1c(Cl)cccc1Cl` [C25, fenaminstrobin], the Preventive value worked out at 55.

For `CC(O)(Cn1cncn1)c1ccc(Oc2ccc(Cl)cc2)cc1C(F)(F)F` (stereo not shown) [H51, mefentrifluconazole], the Preventive value turned out to be 53.

Consider `CC1(C)N=C(c2cnc3ccccc3c2)c2ccccc2C1(F)F` [M20, quinofumelin], for which the Preventive value was 60.

Still in this assay, the particulars now being: 100 ppm, active ingredient B alone; cucumber leaf, 20° C., 3 days after inoculation.
For `COCC(=O)N(c1c(C)cccc1C)[C@H](C)C(=O)OC` [A05, metalaxyl-M], the Preventive value is recorded as 5.

In the case of `CO/C=C(/C(=O)OC)c1ccccc1CO/N=C(C)/C=C/c1ccc(Cl)cc1` [C22, enoxastrobin], the Preventive value was 85.

As to `COC(=O)N(OC)c1ccccc1COc1nc(Cl)c(Cl)cc1Cl` [C38, triclopyricarb], the Preventive value is recorded as 69.

As to `C[C@H]1O[C@H](O[C@H]2[C@H](O)[C@@H](O)[C@@H](O)[C@H](O)[C@@H]2O)[C@@H](N)C[C@@H]1NC(=N)C(=O)O` [D05, kasugamycin], the Preventive value amounted to 28.

As to `CN1OC(c2ccc(Cl)cc2)CC1(C)c1cccnc1` (stereo not shown) [H33, pyrisoxazole], the Preventive value stood at 9.

Turning to `C#CCOc1ccc(CCNC(=O)C(OCC#C)c2ccc(Cl)cc2)cc1OC` (stereo not shown) [I08, mandipropamid], the Preventive value turned out to be 10.

On to `[Cl-].[Cu+2].[Cu+2].[OH-].[OH-].[OH-]` [L08, copper oxychloride], for which the Preventive value came to 5.

With `Cn1c(=O)c2sc3c(=O)n(C)c(=O)c3sc2c1=O` [M23, dipymetitrone], the Preventive value is 54.

As for `CCSS(=O)(=O)CC` [M34, ethylicin], the Preventive value was 10.

Turning to Bacillus subtilis D747 strain [G13], the Preventive value was determined as 28.

With basic copper sulfate [L10], the Preventive value came out at 18.

Turning to fosetyl-aluminium [M08], the Preventive value is given as 10.

Staying with this assay, now noted: Botrytis cinerea, 72 h, read-out: Preventive value.
`COCC(=O)N(c1c(C)cccc1C)N1CCOC1=O` [A07, oxadixyl]: the pest or weed control at 100 ppm worked out at 10%.

For the compound `Cc1cccc(-n2nnn(C)c2=O)c1COc1ccn(-c2ccc(Cl)cc2)n1` [C51, 1-(2-[([1-(4-chlorophenyl)-1H-pyrazol-3-yl]oxy)-methyl]-3-methylphenyl)-4-methyl-1,4-dihydro-5H-tetrazol-5-one], the pest or weed control at 100 ppm was found to be 48%.

On to `Clc1ccc(CSC(Cn2cncn2)=Nc2ccc(Cl)cc2Cl)cc1` [H21, imibenconazole], for which the pest or weed control at 10 ppm was found to be 20%.

Regarding `S=C(S)NCCNC(=S)S` [L35, zineb], the pest or weed control at 100 ppm is 23%.

For `Cc1nc2c(F)c(F)ccc2cc1Oc1cccc(F)c1C(C)(C)O` [M21, 2-(2-[(7,8-difluoro-2-methylquinolin-3-yl)oxy]-6-fluoro-phenyl)propan-2-ol], the pest or weed control at 1 ppm was determined as 65%.

Still in this assay, the particulars now being: Botrytis cinerea, 72 h; 10 ppm, active ingredient B alone; cucumber leaf, 20° C., 3 days after inoculation; read-out: Preventive value.
Regarding `COC(=O)Nc1nc2ccccc2[nH]1` [B02, carbendazim], the pest or weed control at 10 ppm was 85%.

On to `Cc1nnc(Cl)c(-c2c(F)cccc2F)c1-c1ccccc1` [M44, 3-chloro-4-(2,6-difluorophenyl)-6-methyl-5-phenyl-pyridazine], for which the pest or weed control at 10 ppm amounted to 28%.

The assay is the same for the next values; noted with them: Botrytis cinerea, 72 h; 100 ppm, active ingredient B alone; cucumber leaf, 20° C., 3 days after inoculation; read-out: Preventive value.
On to `Cc1cc(O)no1` [A10, hymexazol], for which the pest or weed control at 100 ppm was 10%.

`CCC(C)(NC(=O)c1cc(Cl)c(C)c(Cl)c1)C(=O)CCl` (stereo not shown) [B08, zoxamide]: the pest or weed control at 100 ppm came to 15%.

As to `Cc1ccc(-c2c(Cl)nc(C#N)n2S(=O)(=O)N(C)C)cc1` [C41, cyazofamid], the pest or weed control at 100 ppm was found to be 10%.

Turning to `[H]/N=C(/N)N[C@H]1[C@H](O)[C@@H](O)[C@H](O[C@@H]2O[C@@H](C)[C@](O)(C=O)[C@H]2O[C@@H]2O[C@@H](CO)[C@H](O)[C@@H](O)[C@@H]2NC)[C@@H](N/C(N)=N\[H])[C@@H]1O` [D06, streptomycin], the pest or weed control at 100 ppm came out at 13%.

Regarding `CCCOC(=O)NCCCN(C)C` [G12, propamocarb hydrochloride], the pest or weed control at 100 ppm came to 15%.

In the case of `CCCC1COC(Cn2cncn2)(c2ccc(Cl)cc2Cl)O1` (stereo not shown) [H30, propiconazole], the pest or weed control at 100 ppm came to 38%.

For `CC(C)(C)C(=O)C(Oc1ccc(Cl)cc1)n1cncn1` (stereo not shown) [H37, triadimefon], the pest or weed control at 100 ppm came out at 38%.

As to `CCCOC/C(=N\c1ccc(Cl)cc1C(F)(F)F)n1ccnc1` [H39, triflumizole], the pest or weed control at 100 ppm worked out at 10%.

For the compound `OCC1=C[C@H](N[C@H]2C[C@H](CO)[C@@H](O[C@@H]3O[C@H](CO)[C@@H](O)[C@H](O)[C@H]3O)[C@H](O)[C@H]2O)[C@H](O)[C@@H](O)[C@@H]1O` [I01, validamycin], the pest or weed control at 100 ppm stood at 10%.

In the case of `COc1ccc(C(=CC(=O)N2CCOCC2)c2ccc(Cl)cc2)cc1OC` [I05, dimethomorph], the pest or weed control at 100 ppm was found to be 18%.

Turning to `CN(C)C(=S)SSC(=S)N(C)C` [L21, thiram], the pest or weed control at 100 ppm amounted to 28%.

Regarding `CCNC(=O)NC(=O)/C(C#N)=N/OC` [M02, cymoxanil], the pest or weed control at 100 ppm turned out to be 13%.
